The text below walks through data of US5498632A, “Esters of acyl carnitines with long-chain aliphatic alcohols and pharmaceutical compositions containing same having antibacterial activity” (Sigma-Tau Industrie Farmaceutiche Riunite S.p.A., priority 1992, dated 1996).

One series concerns peritoneal macrophage. Description: Test 4: peritoneal macrophage number in mice. It counts as in vivo, mouse (male B6 D2 F1). The settings on record: 100 mg/kg/day for 5 consecutive days, oral. The method, then:
Evaluation of the effect of repeated oral administrations of ST 722 on the peritoneal macrophage number in mice.
Male B6 D2 F1 mice (C. River) aged 10 weeks (6 animals each group) were orally treated with the substance ST 722 at the dose of 100 mg/kg/day for 5 consecutive days. Twenty-four hours after the last administration, the animals were sacrificed, the peritoneal exudate cells (PEC) collected and the macrophage number determined.

A further series deals with Gram+ bacterial strains. Description: Mean MIC in broth and resistant strain number, Gram+ strains. The series is classed as cell-based. Conditions: 18 h, versus susceptible strains. In outline:
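MIC read after 18 hours at 37° C following standard microdilution of compounds in Mueller-Hinton broth. Bacteria grown overnight, matched to 0.5 McFarland turbidity and brought to a final 5.0×10^4 colony-forming units/ml. Mean MIC taken over susceptible strains, alongside count of resistant strains.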

Another series concerns Gram- bacterial strains. Put plainly: Mean MIC in broth and resistant strain number, Gram- strains. The settings on record: 18 h; Gram- strains; versus susceptible strains; read-out: Mean MIC values. The series is classed as cell-based. The essentials:
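MH broth microdilution, 2-fold serial dilns; inoc. 0.5 McFarland overnight culture → final 5.0×10^4 CFU/ml; equal vol. bacteria + compound; 37 °C, 18 h, humidified; MIC.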

Series [1] relates to Helicobacter pylori NCTC 11637. Put plainly: In vitro synergistic effect of ST 722 and Bismuth Subcitrate. It counts as cell-based. The method, then: CBS from the commercially available product De-Nol® (Gist-Brocades, Netherland), i.e. ammonium and potassium double salt of colloidal bismuth citrate hydroxide, was utilized by preparing a suspension of 10 mg/ml CBS in 1N NaOH. After diluting 1:10 in Mueller-Hinton broth, 8 serial two-fold dlitutions in the same medium were made. The compound ST 722 was dissolved in Mueller-Hinton broth at a starting concentration of 100 mcg/ml, then 7 serial two-fold dilutions were carried out.
The "in vitro" anti-Helicobacter activity of both CBS and ST 722, alone and in association, was tested by utilizing the strain H. pylori NCTC 11637.
A 24-hour culture of Helicobacter in Columbia agar medium supplemented with Vitox (Oxoid) and 7% defribinated horse blood is washed with Mueller-Hinton broth.
Following densitometric evaluation (reading at 600 nm), the bacterial suspension was adjusted to a concentration of 1.0×10^9 cells/ml and 0.2-ml volumes were distributed into each well of a 96-well U-bottomed microtiter plate.
A 1-μl volume of this bacterial suspension was then distributed, by means of a Steers-type replicator apparatus, into the wells of microtiter plates containing the substances, either alone or in association. The final bacterial inoculum contained approximately 1.0×10^6 bacterial cells.
The procedure described by Garrod et al. (GARROD, L. P. and WATERWORTH, P. M., 1962. Methods of testing combined antibiotic bactericidal action and the significance of the results. J. Clin. Pathol. 15, 328-338) was utilized.
Briefly, 250-μl volumes of each test substance, either alone or admixed in all the possible combinations, were additioned to 4.5 ml of Mueller-Hinton agar containing 5% defribinated horse serum. Volumes of 0.2 ml/well of the resulting solution were distributed into the wells of a microtiter plate, then seeded with 1 μl/well of a standardized bacterial suspension, and finally incubated for 48 hours at 37° C. in a 10% CO2 atmosphere.
In order to evaluate the results obtained with combinations of antibiotics it was utilized the method (KROGSTAD, D. J. and MOELLERING, R. C., 1983. Antimicrobial combinations. In LORIAN, V., Antibiotics in Laboratory Medicine, 15, 537-549) based on the calculation of the Fractional Inhibitory Concentration Index (FIC index).
FIC index is calculated as follows: [formula] Where (A) is the MIC of substance A in the association and (MICA) is the […] of the organism to substance A alone. FICA is the fractional inhibitory concentration of substance A. (B), (MICB) and FICB are defined in the same fashion for substance B.
Based on these criteria, the effect of a combination of 2 substances is referred to as 'synergistic" when the FIC index is ≤0.5, "additive" with a FIC index=1, and "antagonist" when FIC index is >1.

As to `CCCCCCCCCCCOC(=O)CC(C[N+](C)(C)C)OC(=O)CC(C)C` [ST 722, Isovaleryl-L-Carnitine Undecyl Ester Chloride], in the series with peritoneal macrophage, the Body weight was determined as 28.13 ± 1.30 g, the “increase in the peritoneal macrophages number” value is “about 60%” and the “toxic effect in PEC macrophage population” value was “No toxic effect has been observed”. Moreover, the “PEC M.phi.” value in the series on peritoneal macrophage (6 pooled samples) is 63%. This molecule yielded a minimum inhibitory concentration (MIC) against Gram+ bacterial strains of 3.12 µg/mL. Also, the minimum inhibitory concentration (MIC) in the series on Gram- bacterial strains came out at 35.7 µg/mL. In addition, in series [1] (Helicobacter pylori, NCTC11637, substance alone, H. pylori NCTC 11637, 48 hours, read-out: MIC), the minimum inhibitory concentration (MIC) amounted to 1.56 µg/mL. Also, the “FIC (fractional inhibitory concentration)” value in series [1] (ST 722 with CBS) worked out at 0.12.

Broadly, the MIC is the lowest concentration that inhibits growth of the organism.
